{"source": "patent US9272047B2", "about": "“Use of biological surfactant as anti-inflammatory agent and tissue preservative solution” (Shaperon Inc., priority 2007, dated 2016)", "key": {"[1]": {"tested_on": "dendritic cell-mediated T cell", "test": "Inhibition of the activation of dendritic cell-mediated T cell by E. coli LPS ([3H]-methylthymidine)", "type": "cell-based, mouse", "protocol": "Antigen presenting cells activated by LPS activates T cells. It was tested whether dendritic cells blocked by sodium glycocholate can activate T cells when LPS activates dendritic cells. Cells were harvested from the bone marrow of Rag2 deficient male mouse. The harvested cells were plated at 4×10^3 cells/well in a 96-well plate and treated with 1.5 ng/ml of […] and 0.75 ng/ml of interleukin-4, and then incubated for 6 days to differentiate into dendritic cells. Sodium glycocholate was reacted with LPS for 1 hour at 37° C., and then mixed with the dendritic cells. The dendritic cells were stimulated for 14 hours at 37° C., and CD3+ and CD4+ T cells separated from female Marilyn mouse having H-Y antigen-specific T cell receptor (TCR), were incubated with the dendritic cells for 72 hours. [3H]-methylthymidine was added, at 1 μCi/well, to the 96-well plate and then incubated for 18 hours. Cells were harvested from the 96-well plated and then CPM (count per minute) was measured through a beta counter."}, "[2]": {"tested_on": "macrophages", "test": "In vitro proinflammatory cytokine generation by E. coli LPS, macrophages (ELISA)", "type": "cell-based, C57BL/6 mouse", "conditions": "LPS stimulation", "protocol": "In order to assay the effect of sodium glycocholate on the generation of proinflammatory cytokines induced by E. coli LPS, dendritic cells were prepared in the same way as Example 3, and macrophages were separated from the abdomen of C57BL/6 mouse. Thereafter, sodium glycocholate and LPS were reacted in vitro for 1 hour at 37° C., and then mixed with the cells. Each cell was stimulated for 14 hours at 37° C., and then supernatant fluid was separated.\nThe concentrations of TNF-α and interleukin-12p40 in the separated supernatant fluid was measured by an enzyme-linked immunoabsorbent assay (ELISA).\nEach group was treated and assayed at least twice, and the results were statistically analyzed through t-test. The results were p<0.05 compared with the experimental groups treated by only LPS."}, "[3]": {"tested_on": "macrophages", "test": "Inhibition of LPS-induced nitric oxide generation, macrophages (Griess)", "type": "cell-based, mouse", "conditions": "macrophages stimulated by LPS, 18 hours", "protocol": "(§1) Then, the resulting dendritic cell mixtures were plated, by […] each, in a 96-well plate. Griss reagents were added to each well, and the 96-well plate was covered with foils and kept reacting for 15 min at room temperature. Absorbance at 540 nm was measured using an ELISA reader. Macrophages separated from abdomen were also treated with sodium glycocholate, sodium taurochenodeoxycholate and sodium taurodeoxycholate, respectively, and then stimulated with LPS for 18 hours. Thereafter, the same experiments as the dentritic cells were performed to the macrophages."}, "[4]": {"tested_on": "dendritic cells", "test": "Inhibition of E. coli LPS-induced activation of dendritic cells (CD40, CD80, CD86, I-Ab expression)", "type": "cell-based, mouse", "conditions": "100 ng/ml E. coli LPS; CD11c(+)/7AAD(−) dendritic cells", "protocol": "In order to assay the effect of sodium glycocholate on the activation procedure of antigen presenting cells, which is induced by E. coli LPS, cells were separated from the bone marrow of recombination activating gene 2 (Rag2) deficient mouse. The separated cells were plated at 2×10^5 cells/well in a 96-well plate and then treated with 1.5 ng/ml of granulocyt-macrophage colony-stimulating factor (GM-CSF) and 0.75 ng/ml of interleukin-4 followed by the differentiation of the cells into dentritic cells through 6-day incubation.\nThe dendritic cells were well mixed with sodium glycocholate and LPS. The mixtures were stimulated for 18 hours at 37° C., and stained with anti-CD40-FITC, anti-CD80-FITC, anti-I-Ab-PE, anti-CD86-PE, 7AAD and anti-CD11c-APC, then the cells were assayed via a flow cytometer. Each group was treated and assayed at least twice, and the results were statistically analyzed through t-test. The results were p<0.05 compared with the experimental groups treated by only LPS.\nAs shown FIGS. 9A-9B to 11A-11B, in order to assay only living dedritic cells, CD11c(+)/7AAD(−) cells were selected and then the expressions of dendritic cell costimulatory molecules and I-Ab were assayed."}, "[5]": {"tested_on": "dendritic cell-mediated T cells", "test": "Cytotoxicity to dendritic cell-mediated T cells (7AAD, FACS)", "type": "cell-based, mouse", "protocol": "(§2) The cytotoxicity of sodium glycocholate to the CHO cells, dendritic cells, T cells which were used in the above Examples was assayed. FACS analysis was performed after staining with 7AAD. First, sodium glycocholate was kept in vitro for 1 hour at 37° C., and then mixed with cells. CHO cells or dendritic cells were incubated for 14 hours at 37° C., and T cells which were mixed with 14 hour-incubated dendritic cells, were incubated for 4 days. Then, each cell was stained with 7AAD and cell analysis were carried out by using a flow cytometer."}, "[6]": {"tested_on": "dendritic cells", "test": "Inhibition of LPS-induced nitric oxide generation, dendritic cells (Griess)", "type": "cell-based, mouse", "conditions": "dendritic cells stimulated by LPS, 18 hours", "protocol": "as §1"}, "[7]": {"tested_on": "CHO cells", "test": "Cytotoxicity to CHO cells (7AAD, FACS)", "type": "cell-based, Chinese hamster", "protocol": "as §2\nThe same procedures as for FIG. 25A were carried out in FIGS. 26A-26C-Figs. 31A-31B and cytotoxicity experiments were performed on three groups of bile acid derivatives which were classified based on their solubility in different solvents."}, "[8]": {"tested_on": "LPS-administered C57BL/6 mice", "test": "Protection in LPS mouse model of sepsis (survival)", "type": "in vivo, C57BL/6 mouse", "conditions": "for survival rate of the mice: 20 mg/kg LPS into abdomen", "protocol": "In order to assay the neutralizing capacity of sodium glycocholate to LPS, three C57BL/6 mice of 6 weeks age were used per each group. 20 mg/kg and 10 mg/kg of LPS were administered into abdomen of the mouse in order to measure LD50 of LPS. It was observed that 20 mg/kg of LPS is the best optimal concentration for the test of protection test (FIG. 16).\nThe […] neutralizing capacity of sodium glycocholate to LPS was assayed. The survival rate was measured after 20 mg/kg of LPS was administered into the abdomen of mice and then 12.5 mg/kg of sodium glycocholate, and 20 mg/kg of LPS and 50 mg/kg of sodium glycocholate respectively was administered twice into the abdomen of mice, respectively."}}, "note": "“Also recorded” adds a separate entry of the source.", "data": [{"smiles": "C[C@H](CCC(=O)NCC(=O)[O-])[C@H]1CC[C@H]2[C@@H]3[C@H](O)C[C@@H]4C[C@H](O)CC[C@]4(C)[C@H]3C[C@H](O)[C@]12C.[Na+]", "note": "[sodium glycocholate]", "values": [{"measurement": "inhibition of proliferation of dendritic cell-mediated T cell", "setting": "[1]; 0.5 mg/ml", "result": "104.9±3.2", "unit": "%"}, {"measurement": "inhibition of proliferation of dendritic cell-mediated T cell", "setting": "[1]; 1 mg/ml", "result": "105.1±3.2", "unit": "%"}, {"measurement": "inhibition of generation of TNF-α", "setting": "[2]; 0.5 mg/ml", "result": "42.2±0.9", "unit": "%"}, {"measurement": "inhibition of generation of interleukine-12p40", "setting": "[2]; 0.5 mg/ml", "result": "9.8±11.0", "unit": "%"}, {"measurement": "inhibition of generation of TNF-α", "setting": "[2]; 1 mg/ml", "result": "87.8±0.2", "unit": "%"}, {"measurement": "inhibition of generation of interleukine-12p40", "setting": "[2]; 1 mg/ml", "result": "54.3±4.1", "unit": "%"}, {"measurement": "generation of NO", "setting": "[3]", "result": "inhibited"}, {"measurement": "increased expression of CD40, CD80, CD86 and I-Ab", "setting": "[4]", "result": "inhibited depending on the concentration"}, {"measurement": "cytotoxicity", "setting": "[5]; 1 mg/ml", "result": "no significant cytotoxicity; also recorded: dose not have cytotoxicity"}, {"measurement": "7AAD(+) increase compared with the negative control group", "setting": "[5]; 4 days", "result": "2-4%"}, {"measurement": "generation of NO", "setting": "[6]", "result": "inhibited"}, {"measurement": "cytotoxicity", "setting": "[7]; 1 mg/ml", "result": "no significant cytotoxicity; also recorded: dose not have cytotoxicity"}, {"measurement": "7AAD(+) increase compared with the negative control group", "setting": "[7]; 14 hours", "result": "2-4%"}, {"measurement": "survival rate of the mice", "setting": "[8]; 12.5 mg/kg administered twice (1 hour and 6 hours after LPS)", "result": 40, "unit": "%"}, {"measurement": "survival rate of the mice", "setting": "[8]; 50 mg/kg administered twice (1 hour and 6 hours after LPS)", "result": 60, "unit": "%"}, {"measurement": "mortality of mice", "setting": "[8]; dose of 12.5 mg/kg mouse", "result": "significantly reduced"}]}]}
